Data on 53 molecules can be found in patent publication US10201158B2, “Plant disease control composition and method for controlling plant disease by application of same” (MITSUI CHEMICALS AGRO, INC., priority 2014, dated 2019).

In experiment [1] the test system is Botrytis cinerea. As to conditions: in vivo.
Experiment [2] deals with Sphaerotheca fuliginea. The experiment is described as follows: Cucumber powdery mildew preventive test. Type of experiment: in vivo. Particulars: in vivo. The method, then: In a greenhouse, cucumber (variety: Sagamihanshiro) planted in a plastic pot having a diameter of 5 cm was grown to the 3rd to 5th-leaf stage. Spray was carried out in the same manner as in Test example 1, and 3 days after the spray, a conidia suspension prepared from Sphaerotheca fuliginea were inoculated on the leaf surface. After inoculation, the pots were placed in a thermostatic greenhouse (20 to 25° C.), and controlling effects were examined after 7 days from the inoculation. In the examination, a ratio of lesion area occupied per one leaf of cucumber was determined according to the same index as in Test example 1, and the control value and the theoretical value according to Colby's formula were similarly calculated.
Wettable powder prepared in compliance with Comparative Preparation Example 4 containing the compounds indicated in Table 7-9 were sprayed to the cucumber leaves, a conidiospore suspension prepared from Sphaerotheca fuliginea was inoculated onto the plants, and the controlling effects were examined in a manner similar to Test Example 6.

Experiment [3] concerns Pyricularia oryzae. In kind it is in vivo. As to conditions: Table 3-4, group b ingredient alone.

Where two headings read alike, the source gives them in different places.

Turning to `CCCCC(C#N)(Cn1cncn1)c1ccc(Cl)cc1` (stereo not drawn) [Myclobutanil (b-35), Myclobutanil], the values for the Preventive value in experiment [1] and in experiment [2] were 17 and 33, respectively.

For the molecule `Cc1ccc2nc3sc(=O)sc3nc2c1` [Chinomethionat (b-74), Chinomethionat], the Preventive value was determined as 17 in experiment [1] and 50 in experiment [2]. In the case of `CCCCNC(=O)n1c(NC(=O)OC)nc2ccccc21` [Benomyl (b-58), Benomyl], the Preventive value in experiment [1] is reported as 60; in experiment [2] it was 50. On to `CC(C)C1CCC(Cc2ccc(Cl)cc2)C1(O)Cn1cncn1` (stereo not drawn) [Ipconazole (b-25), Ipconazole], for which the Preventive value in experiment [1] is 40; in experiment [2] it was 50. Regarding `S1SSSSSSS1` [Sulfur (b-96), Sulfur], the Preventive value in experiment [1] amounted to 0; in experiment [2] it was 73. With `CCN(C)/C=N/c1cc(C)c(Oc2nc(Cc3ccc(Cl)cc3)ns2)cc1C` [Compound of formula (XVII) (b-91)], the Preventive value in experiment [1] and in experiment [2] was 40 each time.

For `CO/C=C(/C(=O)OC)c1ccccc1COc1cccc(C(F)(F)F)n1` [Picoxystrobin (b-16), Picoxystrobin], the Preventive value in experiment [3] (treatment concentration 10 + 2 ppm) was found to be 50.

With `CCCC(Cn1cncn1)c1ccc(Cl)cc1Cl` (stereo not drawn) [Penconazole(b-32)], in experiment [2], the Preventive value turned out to be 47. Consider `OC(c1cccnc1)c1c(-c2ccc(Cl)cc2F)noc1-c1ccc(F)cc1F` (stereo not drawn) [Compound of (XVIII) (b-92)], for which the Preventive value in experiment [1] is given as 50; in experiment [2] it was 40.

On to Propineb [Propineb (b-69)], for which the Preventive value is reported as 33 in experiment [1] and 17 in experiment [2]. In experiment [1], `Cn1cc(C(=O)Nc2ccccc2C2CC2C2CC2)c(C(F)F)n1` (stereo not drawn) [Sedaxane (b-6), Sedaxane] came in with a Preventive value of 50. In experiment [2], this molecule showed a Control value of 40. In turn, `Cc1nc(C(F)(F)F)c(C(=O)Nc2c(Br)cc(OC(F)(F)F)cc2Br)s1` [Thifluzamide (b-42), Thifluzamide] came in with a Preventive value in experiment [1] of 23. This molecule also yielded a Control value in experiment [2] of 73. Consider `N#Cc1ccccc1NC(=O)c1snc(Cl)c1Cl` [Isotianil (b-46), Isotianil], for which the Preventive value in experiment [3] (treatment concentration 10 + 10 ppm) was 50. In experiment [1], `CC(C)C1C2CCC1c1c(NC(=O)c3cn(C)nc3C(F)F)cccc12` (stereo not drawn) [Isopyrazam (b-7), Isopyrazam] registered a Preventive value of 40. This molecule had a Control value in experiment [2] of 40. For the molecule `OP(O)O` [Phosphorous acid (b-105), Phosphorous acid], the Preventive value in experiment [1] and in experiment [2] was 33 each time. Take `CN(C)C(=S)SSC(=S)N(C)C` [Thiuram (b-68), Thiuram]: in experiment [2], the Preventive value was determined as 33.

Take `Fc1ccc(C2(Cn3nc[nH]c3=S)OC2c2ccccc2Cl)c(F)c1` (stereo not drawn) [Compound of (V) (b-36)]: the Preventive value in experiment [1] was 40; in experiment [2], 33. Consider `CC(Cc1ccc(C(C)(C)C)cc1)CN1C[C@@H](C)O[C@@H](C)C1` (stereo partly drawn) [Fenpropimorph (b-65), Fenpropimorph], for which the values for the Preventive value in experiment [1] and in experiment [2] were 17 and 33, respectively. The like results for `CCCOc1nc2ccc(I)cc2c(=O)n1CCC` [Proquinazid (b-100), Proquinazid] were, in that order, 17 and 40.

As to `CCCN(CC)CC1COC2(CCC(C(C)(C)C)CC2)O1` (stereo not drawn) [Spiroxamine (b-101), Spiroxamine], the Preventive value in experiment [1] was determined as 17; in experiment [2], 33. In the same order, the values of `COc1cc(C)c(C(=O)c2c(OC)ncc(Cl)c2C)c(OC)c1OC` [Pyriofenone (b-83), Pyriofenone] are 33 and 40. For the molecule `c1ccc2[nH]c(-c3cscn3)nc2c1` [Thiabendazole (b-60), Thiabendazole], the Preventive value worked out at 57 in experiment [1] and 40 in experiment [2]. Take `CC1(C)CCC(Cc2ccc(Cl)cc2)C1(O)Cn1cncn1` (stereo not drawn) [Metconazole (b-26), Metconazole]: the Preventive value in experiment [1] came to 40; in experiment [2], 50. For `CC1COC(Cn2cncn2)(c2ccc(Oc3ccc(Cl)cc3)cc2Cl)O1` (stereo not drawn) [Difenoconazole (b-29), Difenoconazole], the Preventive value in experiment [1] was found to be 33; in experiment [2], 40. Consider `Fc1ccc(Oc2ccnc3cc(Cl)cc(Cl)c23)cc1` [Quinoxyfen (b-63), Quinoxyfen], for which the Preventive value came to 17 in experiment [1] and 60 in experiment [2]. The molecule `C=CCSC(=O)n1c(N)c(-c2ccccc2C)c(=O)n1C(C)C` [Fenpyrazamine (b-99), Fenpyrazamine] came in with a Control value in experiment [2] of 33. In turn, `CCCC(Cn1cncn1)c1ccc(Cl)cc1Cl` (stereo not drawn) [Penconazole (b-32), Penconazole] returned a Preventive value in experiment [1] of 17.

Regarding `CC(C1CC1)C(O)(Cn1cncn1)c1ccc(Cl)cc1` (stereo not drawn) [Cyproconazole (b-28), Cyproconazole], the Preventive value in experiment [1] was found to be 17; in experiment [2] it was 47.

With `COc1cc(C)c(C(=O)c2c(OC)ccc(Br)c2C)c(OC)c1OC` [Metrafenone (b-82), Metrafenone], the results for the Preventive value in experiment [1] and in experiment [2] were 0 and 40, respectively.

For `FC(F)C(F)(F)OCC(Cn1cncn1)c1ccc(Cl)cc1Cl` (stereo not drawn) [Tetraconazole (b-22), Tetraconazole], the Preventive value was determined as 40 in experiment [1] and 50 in experiment [2].

`CC(C)c1ccc(Cl)cc1CN(C(=O)c1c(C(F)F)nn(C)c1F)C1CC1` [Compound of formula (IV) (b-9)]: the figures for the Preventive value in experiment [1] and in experiment [2] were 40 and 60, respectively. For the molecule `CCCCCCCCCCCCCN1CC(C)OC(C)C1` (stereo not drawn) [Tridemorph (b-66), Tridemorph], the Preventive value in experiment [1] turned out to be 17; in experiment [2], 33. Take `O=c1c2cc(F)ccc2nc(-n2cncn2)n1-c1ccc(Cl)cc1Cl` [Fluquinconazole (b-30), Fluquinconazole]: the Preventive value in experiment [1] was 33; in experiment [2] it was 47. Turning to `CN1OC(c2ccc(Cl)cc2)CC1(C)c1cccnc1` (stereo not drawn) [Pyrisoxazole (b-103), Pyrisoxazole], in experiment [2], the Preventive value was 33. For the molecule `C=CCOC(Cn1ccnc1)c1ccc(Cl)cc1Cl` (stereo not drawn) [Imazalil (b-20), Imazalil], the Preventive value in experiment [1] was determined as 17; in experiment [2], 40. In turn, `CC1=C(C(=O)Nc2ccccc2)SCCO1` [Carboxin (b-41), Carboxin] returned a Preventive value in experiment [1] of 17. For the same molecule, in experiment [2], the Control value was 40. Regarding `N#Cc1ccccc1NC(=O)c1snc(Cl)c1Cl` [Isotianil(b-46)], the Preventive value in experiment [2] stood at 33. With `O=C1c2ccccc2C(=O)N1SC(Cl)(Cl)Cl` [Folpet (b-70), Folpet], the Preventive value in experiment [1] is 73; in experiment [2] it was 33. In experiment [1], `CCCN(CCOc1c(Cl)cc(Cl)cc1Cl)C(=O)n1ccnc1` [Prochloraz (b-21), Prochloraz] showed a Preventive value of 17. Molecule `CCCN(CCOc1c(Cl)cc(Cl)cc1Cl)C(=O)n1ccnc1` [Prochloraz(b-21)] had a Preventive value in experiment [2] of 50. Regarding `CC(Cc1ccc(C(C)(C)C)cc1)CN1CCCCC1` (stereo not drawn) [Fenpropidin (b-102), Fenpropidin], the results for the Preventive value in experiment [1] and in experiment [2] were 17 and 40, respectively. `COC(=O)Nc1nc2ccccc2[nH]1` [Carbendazim (b-59), Carbendazim] came in with a Preventive value in experiment [1] of 40. Consider `CCCC1COC(Cn2cncn2)(c2ccc(Cl)cc2Cl)O1` (stereo not drawn) [Propiconazole (b-27), Propiconazole], for which the Preventive value turned out to be 33 in experiment [1] and 40 in experiment [2].

In the case of `C[Si](Cn1cncn1)(c1ccc(F)cc1)c1ccc(F)cc1` [Flusilazole (b-31), Flusilazole], the Preventive value in experiment [1] was 17; in experiment [2], 33.

Take `Cc1nn(C)c(Nc2c(F)cc(Cl)cc2F)c1-c1ccc(F)cc1Cl` [Compound of formula (XV)-1 (b-89)]: the Preventive value in experiment [1] and in experiment [2] was 40 throughout. Regarding `CON(C(=O)c1cn(C)nc1C(F)F)C(C)Cc1c(Cl)cc(Cl)cc1Cl` (stereo not drawn) [Compound of formula (III) (b-8)], the Preventive value came out at 40 in experiment [1] and 60 in experiment [2].

With `OC(Cn1cncn1)(c1ccc(F)cc1)c1ccccc1F` (stereo not drawn) [Flutriafol (b-34), Flutriafol], the Preventive value in experiment [1] was found to be 33; in experiment [2], 40. Regarding `COC(=O)NCc1cc(/C(C)=N/OCc2cccc(C)n2)ccc1Cl` [Pyribencarb (b-98), Pyribencarb], the Preventive value in experiment [1] came out at 40. As for `COc1ccccc1N1CCS/C1=C(/C#N)Sc1cc(C(F)(F)F)ccc1F` [Flutianil (b-77), Flutianil], the Preventive value in experiment [1] is given as 17; in experiment [2] it was 67. The molecule `Cc1cc(C2CC2)nc(Nc2ccccc2)n1` [Cyprodinil (b-61), Cyprodinil] had a Preventive value in experiment [1] of 50. Moreover, the Control value in experiment [2] came to 40. On to `Cc1nn(C)c(F)c1C(=O)Nc1ccccc1C(C)CC(C)C` (stereo not drawn) [Penflufen (b-5), Penflufen], for which the Preventive value in experiment [1] was determined as 47. In addition, in experiment [2], the Control value is reported as 73.

As for Metiram [Metiram (b-67)], the Preventive value in experiment [2] amounted to 33.

For the molecule `Fc1ccc([C@]2(Cn3cncn3)O[C@H]2c2ccccc2Cl)cc1` (racemic) [Epoxiconazole (b-24), Epoxiconazole], the results for the Preventive value in experiment [1] and in experiment [2] were 33 and 40, respectively.
